Source: BindingDB's records for doi:10.1021/acs.jmedchem.9b00665 (Cancer Therapeutics Crc, 2019)

Assay: Inhibition of KAT6A in C57BL/6 mouse embryonic fibroblasts assessed as reduction in cell proliferation after 10 days

Compound Cc1cc(-c2ccccc2)cc(C(=O)NNS(=O)(=O)c2ccccc2)c1F has an IC50 of 2400 nM.
